Results: ChEMBL document CHEMBL3046405, “Knockdown of several components of cytochrome P450 enzyme systems by RNA interference enhances the susceptibility of Helicoverpa armigera to fenvalerate” (2012)

How the values were obtained:
Type in all cases: functional
Helicoverpa armigera [1] = test: Insecticidal activity against fenvalerate-resistant Helicoverpa armigera HDFR third-instar larvae injected with dsCYP6B7-313-1 dsRNA plus dsCPR-403-1 dsRNA and dsCyt-b5-4 dsRNA assessed as compound level per larva causing mortality after 12 hr
Helicoverpa armigera [2] = test: Insecticidal activity against fenvalerate-resistant Helicoverpa armigera HDFR third-instar larvae injected with dsCYP6B7-313-1 dsRNA plus dsCyt-b5-4 dsRNA assessed as compound level per larva causing mortality after 12 hr
Helicoverpa armigera [3] = test: Insecticidal activity against fenvalerate-resistant Helicoverpa armigera HDFR third-instar larvae injected with dsCYP6B7-313-1 dsRNA plus dsCPR-403-1 dsRNA assessed as compound level per larva causing mortality after 12 hr
Helicoverpa armigera [4] = test: Insecticidal activity against fenvalerate-resistant Helicoverpa armigera HDFR third-instar larvae injected with dsCYP6B7-313-1 dsRNA assessed as compound level per larva causing mortality after 12 hr
Helicoverpa armigera [5] = test: Insecticidal activity against fenvalerate-resistant Helicoverpa armigera HDFR third-instar larvae injected with TE buffer assessed as compound level per larva causing mortality after 12 hr
Helicoverpa armigera [6] = test: Insecticidal activity against fenvalerate-resistant Helicoverpa armigera HDFR third-instar larvae without dsRNA injection assessed as compound level per larva causing mortality after 12 hr
Helicoverpa armigera [7] = test: Resistance index, ratio of LD50 for fenvalerate-resistant Helicoverpa armigera HDFR third-instar larvae to LD50 for fenvalerate-susceptible Helicoverpa armigera third-instar larvae
Helicoverpa armigera [8] = test: Insecticidal activity against fenvalerate-resistant Helicoverpa armigera HDFR third-instar larvae assessed as compound level per larva causing mortality after 48 hr
Helicoverpa armigera [9] = test: Insecticidal activity against fenvalerate-susceptible Helicoverpa armigera third-instar larvae assessed as compound level per larva causing mortality after 48 hr
Helicoverpa armigera [10] = test: Insecticidal activity against fenvalerate-resistant Helicoverpa armigera HDFR third-instar larvae injected with dsCYP6B7-313-1 dsRNA plus dsCPR-403-1 dsRNA and dsCyt-b5-4 dsRNA assessed as insect mortality at 4 to 16 ug/larva after 48 hr (fenvalerate alone control = 29.1 to 50.0%)
Helicoverpa armigera [11] = test: Insecticidal activity against fenvalerate-resistant Helicoverpa armigera HDFR third-instar larvae injected with dsCYP6B7-313-1 dsRNA plus dsCyt-b5-4 dsRNA assessed as insect mortality at 4 to 16 ug/larva after 48 hr (fenvalerate alone control = 29.1 to 50.0%)
Helicoverpa armigera [12] = test: Potency index, ratio of LD50 for fenvalerate-resistant Helicoverpa armigera HDFR third-instar larvae injected with TE buffer to LD50 for fenvalerate-resistant Helicoverpa armigera HDFR third-instar larvae injected with dsCYP6B7-313-1 dsRNA after 24 hr
Helicoverpa armigera [13] = test: Insecticidal activity against fenvalerate-resistant Helicoverpa armigera HDFR third-instar larvae injected with dsCYP6B7-313-1 dsRNA plus dsCPR-403-1 dsRNA assessed as insect mortality at 4 to 16 ug/larva after 48 hr (fenvalerate alone control = 29.1 to 50.0%)
Helicoverpa armigera [14] = test: Insecticidal activity against fenvalerate-resistant Helicoverpa armigera HDFR third-instar larvae injected with dsCYP6B7-313-1 dsRNA assessed as insect mortality at 4 to 16 ug/larva after 48 hr (fenvalerate alone control = 29.1 to 50.0%)
Helicoverpa armigera [15] = test: Potency index, ratio of LD50 for fenvalerate-resistant Helicoverpa armigera HDFR third-instar larvae injected with TE buffer to LD50 for fenvalerate-resistant Helicoverpa armigera HDFR third-instar larvae injected with dsCYP6B7-313-1 dsRNA plus dsCPR-403-1 dsRNA and dsCyt-b5-4 dsRNA after 48 hr
Helicoverpa armigera [16] = test: Potency index, ratio of LD50 for fenvalerate-resistant Helicoverpa armigera HDFR third-instar larvae injected with TE buffer to LD50 for fenvalerate-resistant Helicoverpa armigera HDFR third-instar larvae injected with dsCYP6B7-313-1 dsRNA plus dsCyt-b5-4 dsRNA after 48 hr
Helicoverpa armigera [17] = test: Potency index, ratio of LD50 for fenvalerate-resistant Helicoverpa armigera HDFR third-instar larvae injected with TE buffer to LD50 for fenvalerate-resistant Helicoverpa armigera HDFR third-instar larvae injected with dsCYP6B7-313-1 dsRNA plus dsCPR-403-1 after 48 hr
Helicoverpa armigera [18] = test: Potency index, ratio of LD50 for fenvalerate-resistant Helicoverpa armigera HDFR third-instar larvae injected with TE buffer to LD50 for fenvalerate-resistant Helicoverpa armigera HDFR third-instar larvae injected with dsCYP6B7-313-1 dsRNA after 48 hr
Helicoverpa armigera [19] = test: Potency index, ratio of LD50 for fenvalerate-resistant Helicoverpa armigera HDFR third-instar larvae injected with TE buffer to LD50 for fenvalerate-resistant Helicoverpa armigera HDFR third-instar larvae injected with dsCYP6B7-313-1 dsRNA plus dsCPR-403-1 dsRNA and dsCyt-b5-4 dsRNA after 36 hr
Helicoverpa armigera [20] = test: Potency index, ratio of LD50 for fenvalerate-resistant Helicoverpa armigera HDFR third-instar larvae injected with TE buffer to LD50 for fenvalerate-resistant Helicoverpa armigera HDFR third-instar larvae injected with dsCYP6B7-313-1 dsRNA plus dsCyt-b5-4 dsRNA after 36 hr
Helicoverpa armigera [21] = test: Potency index, ratio of LD50 for fenvalerate-resistant Helicoverpa armigera HDFR third-instar larvae injected with TE buffer to LD50 for fenvalerate-resistant Helicoverpa armigera HDFR third-instar larvae injected with dsCYP6B7-313-1 dsRNA plus dsCPR-403-1 after 36 hr
Helicoverpa armigera [22] = test: Potency index, ratio of LD50 for fenvalerate-resistant Helicoverpa armigera HDFR third-instar larvae injected with TE buffer to LD50 for fenvalerate-resistant Helicoverpa armigera HDFR third-instar larvae injected with dsCYP6B7-313-1 dsRNA after 36 hr
Helicoverpa armigera [23] = test: Potency index, ratio of LD50 for fenvalerate-resistant Helicoverpa armigera HDFR third-instar larvae injected with TE buffer to LD50 for fenvalerate-resistant Helicoverpa armigera HDFR third-instar larvae injected with dsCYP6B7-313-1 dsRNA plus dsCPR-403-1 dsRNA and dsCyt-b5-4 dsRNA after 24 hr
Helicoverpa armigera [24] = test: Potency index, ratio of LD50 for fenvalerate-resistant Helicoverpa armigera HDFR third-instar larvae injected with TE buffer to LD50 for fenvalerate-resistant Helicoverpa armigera HDFR third-instar larvae injected with dsCYP6B7-313-1 dsRNA plus dsCyt-b5-4 dsRNA after 24 hr
Helicoverpa armigera [25] = test: Potency index, ratio of LD50 for fenvalerate-resistant Helicoverpa armigera HDFR third-instar larvae injected with TE buffer to LD50 for fenvalerate-resistant Helicoverpa armigera HDFR third-instar larvae injected with dsCYP6B7-313-1 dsRNA plus dsCPR-403-1 after 24 hr
Helicoverpa armigera [26] = test: Potency index, ratio of LD50 for fenvalerate-resistant Helicoverpa armigera HDFR third-instar larvae injected with TE buffer to LD50 for fenvalerate-resistant Helicoverpa armigera HDFR third-instar larvae injected with dsCYP6B7-313-1 dsRNA plus dsCPR-403-1 dsRNA and dsCyt-b5-4 dsRNA after 12 hr
Helicoverpa armigera [27] = test: Potency index, ratio of LD50 for fenvalerate-resistant Helicoverpa armigera HDFR third-instar larvae injected with TE buffer to LD50 for fenvalerate-resistant Helicoverpa armigera HDFR third-instar larvae injected with dsCYP6B7-313-1 dsRNA plus dsCyt-b5-4 dsRNA after 12 hr
Helicoverpa armigera [28] = test: Potency index, ratio of LD50 for fenvalerate-resistant Helicoverpa armigera HDFR third-instar larvae injected with TE buffer to LD50 for fenvalerate-resistant Helicoverpa armigera HDFR third-instar larvae injected with dsCYP6B7-313-1 dsRNA plus dsCPR-403-1 after 12 hr
Helicoverpa armigera [29] = test: Potency index, ratio of LD50 for fenvalerate-resistant Helicoverpa armigera HDFR third-instar larvae injected with TE buffer to LD50 for fenvalerate-resistant Helicoverpa armigera HDFR third-instar larvae injected with dsCYP6B7-313-1 dsRNA after 12 hr
Helicoverpa armigera [30] = test: Insecticidal activity against fenvalerate-resistant Helicoverpa armigera HDFR third-instar larvae injected with dsCYP6B7-313-1 dsRNA plus dsCPR-403-1 dsRNA and dsCyt-b5-4 dsRNA assessed as compound level per larva causing mortality after 48 hr
Helicoverpa armigera [31] = test: Insecticidal activity against fenvalerate-resistant Helicoverpa armigera HDFR third-instar larvae injected with dsCYP6B7-313-1 dsRNA plus dsCyt-b5-4 dsRNA assessed as compound level per larva causing mortality after 48 hr
Helicoverpa armigera [32] = test: Insecticidal activity against fenvalerate-resistant Helicoverpa armigera HDFR third-instar larvae injected with dsCYP6B7-313-1 dsRNA plus dsCPR-403-1 dsRNA assessed as compound level per larva causing mortality after 48 hr
Helicoverpa armigera [33] = test: Insecticidal activity against fenvalerate-resistant Helicoverpa armigera HDFR third-instar larvae injected with dsCYP6B7-313-1 dsRNA assessed as compound level per larva causing mortality after 48 hr
Helicoverpa armigera [34] = test: Insecticidal activity against fenvalerate-resistant Helicoverpa armigera HDFR third-instar larvae injected with TE buffer assessed as compound level per larva causing mortality after 48 hr
Helicoverpa armigera [35] = test: Insecticidal activity against fenvalerate-resistant Helicoverpa armigera HDFR third-instar larvae without dsRNA injection assessed as compound level per larva causing mortality after 48 hr
Helicoverpa armigera [36] = test: Insecticidal activity against fenvalerate-resistant Helicoverpa armigera HDFR third-instar larvae injected with dsCYP6B7-313-1 dsRNA plus dsCPR-403-1 dsRNA and dsCyt-b5-4 dsRNA assessed as compound level per larva causing mortality after 36 hr
Helicoverpa armigera [37] = test: Insecticidal activity against fenvalerate-resistant Helicoverpa armigera HDFR third-instar larvae injected with dsCYP6B7-313-1 dsRNA plus dsCyt-b5-4 dsRNA assessed as compound level per larva causing mortality after 36 hr
Helicoverpa armigera [38] = test: Insecticidal activity against fenvalerate-resistant Helicoverpa armigera HDFR third-instar larvae injected with dsCYP6B7-313-1 dsRNA plus dsCPR-403-1 dsRNA assessed as compound level per larva causing mortality after 36 hr
Helicoverpa armigera [39] = test: Insecticidal activity against fenvalerate-resistant Helicoverpa armigera HDFR third-instar larvae injected with dsCYP6B7-313-1 dsRNA assessed as compound level per larva causing mortality after 36 hr
Helicoverpa armigera [40] = test: Insecticidal activity against fenvalerate-resistant Helicoverpa armigera HDFR third-instar larvae injected with TE buffer assessed as compound level per larva causing mortality after 36 hr
Helicoverpa armigera [41] = test: Insecticidal activity against fenvalerate-resistant Helicoverpa armigera HDFR third-instar larvae without dsRNA injection assessed as compound level per larva causing mortality after 36 hr
Helicoverpa armigera [42] = test: Insecticidal activity against fenvalerate-resistant Helicoverpa armigera HDFR third-instar larvae injected with dsCYP6B7-313-1 dsRNA plus dsCPR-403-1 dsRNA and dsCyt-b5-4 dsRNA assessed as compound level per larva causing mortality after 24 hr
Helicoverpa armigera [43] = test: Insecticidal activity against fenvalerate-resistant Helicoverpa armigera HDFR third-instar larvae injected with dsCYP6B7-313-1 dsRNA plus dsCyt-b5-4 dsRNA assessed as compound level per larva causing mortality after 24 hr
Helicoverpa armigera [44] = test: Insecticidal activity against fenvalerate-resistant Helicoverpa armigera HDFR third-instar larvae injected with dsCYP6B7-313-1 dsRNA plus dsCPR-403-1 dsRNA assessed as compound level per larva causing mortality after 24 hr
Helicoverpa armigera [45] = test: Insecticidal activity against fenvalerate-resistant Helicoverpa armigera HDFR third-instar larvae injected with dsCYP6B7-313-1 dsRNA assessed as compound level per larva causing mortality after 24 hr
Helicoverpa armigera [46] = test: Insecticidal activity against fenvalerate-resistant Helicoverpa armigera HDFR third-instar larvae injected with TE buffer assessed as compound level per larva causing mortality after 24 hr
Helicoverpa armigera [47] = test: Insecticidal activity against fenvalerate-resistant Helicoverpa armigera HDFR third-instar larvae without dsRNA injection assessed as compound level per larva causing mortality after 24 hr

## CC(C)C(C(=O)OC(C#N)c1cccc(Oc2ccccc2)c1)c1ccc(Cl)cc1 (configuration not stated) [FENVALERATE]
Helicoverpa armigera [1]
  LD50: 12.6 µg
Helicoverpa armigera [2]
  LD50: 19 µg
Helicoverpa armigera [3]
  LD50: 16.8 µg
Helicoverpa armigera [4]
  LD50: 23.9 µg
Helicoverpa armigera [5]
  LD50: 46.8 µg
Helicoverpa armigera [6]
  LD50: 48.8 µg
Helicoverpa armigera [7]
  Ratio: 164
Helicoverpa armigera [8]
  LD50: 16.13 µg
Helicoverpa armigera [9]
  LD50: 0.0982 µg
Helicoverpa armigera [10]
  mortality: 44.4%
Helicoverpa armigera [11]
  mortality: 50%
Helicoverpa armigera [12]
  Ratio: 1.8
Helicoverpa armigera [13]
  mortality: 40.7%
Helicoverpa armigera [14]
  mortality: 38.8%
Helicoverpa armigera [15]
  Ratio: 3.2
Helicoverpa armigera [16]
  Ratio: 3.1
Helicoverpa armigera [17]
  Ratio: 2.4
Helicoverpa armigera [18]
  Ratio: 2
Helicoverpa armigera [19]
  Ratio: 3
Helicoverpa armigera [20]
  Ratio: 2.6
Helicoverpa armigera [21]
  Ratio: 2.9
Helicoverpa armigera [22]
  Ratio: 1.6
Helicoverpa armigera [23]
  Ratio: 3.5
Helicoverpa armigera [24]
  Ratio: 2.4
Helicoverpa armigera [25]
  Ratio: 2.9
Helicoverpa armigera [26]
  Ratio: 3.7
Helicoverpa armigera [27]
  Ratio: 2.5
Helicoverpa armigera [28]
  Ratio: 2.8
Helicoverpa armigera [29]
  Ratio: 2
Helicoverpa armigera [30]
  LD50: 6.7 µg
Helicoverpa armigera [31]
  LD50: 6.9 µg
Helicoverpa armigera [32]
  LD50: 8.9 µg
Helicoverpa armigera [33]
  LD50: 10.7 µg
Helicoverpa armigera [34]
  LD50: 21.5 µg
Helicoverpa armigera [35]
  LD50: 23.1 µg
Helicoverpa armigera [36]
  LD50: 8.6 µg
Helicoverpa armigera [37]
  LD50: 9.9 µg
Helicoverpa armigera [38]
  LD50: 8.9 µg
Helicoverpa armigera [39]
  LD50: 16.5 µg
Helicoverpa armigera [40]
  LD50: 25.6 µg
Helicoverpa armigera [41]
  LD50: 26.1 µg
Helicoverpa armigera [42]
  LD50: 10.2 µg
Helicoverpa armigera [43]
  LD50: 14.5 µg
Helicoverpa armigera [44]
  LD50: 12.3 µg
Helicoverpa armigera [45]
  LD50: 19.7 µg
Helicoverpa armigera [46]
  LD50: 35.2 µg
Helicoverpa armigera [47]
  LD50: 35.7 µg
